# From patent publication US10752587B2, “Homobispiperidinyl derivatives as liver X receptor beta agonists, compositions and their use” (Merck Sharp & Dohme Corp., priority 2015, dated 2020)
# Columns and labels:
# [1] = molecular target: T1, glutathione-S-transferase (GST) tagged LXRbeta LBD (ligand binding domain) (Homo sapiens, UniProt P55055); test: LanthaScreen TR-FRET Liver X Receptor Coactivator Assay, co-activator recruitment to LXRbeta LBD; format: biochemical; settings: for Emax / LXR beta Activity @ max dose (%): efficacy at max dose, in relation to reference dual agonist T0901317; for Emax: read-out: LXR beta Activity @ max dose (%); for EC50: potency (Inflection Point, IP), co-activator recruitment to LXRbeta LBD, in relation to T0901317, read-out: LXR beta IP
# T1 construct: purchased Invitrogen pv4658.pps
# T1 sequence (P55055 222-460 limits assumed): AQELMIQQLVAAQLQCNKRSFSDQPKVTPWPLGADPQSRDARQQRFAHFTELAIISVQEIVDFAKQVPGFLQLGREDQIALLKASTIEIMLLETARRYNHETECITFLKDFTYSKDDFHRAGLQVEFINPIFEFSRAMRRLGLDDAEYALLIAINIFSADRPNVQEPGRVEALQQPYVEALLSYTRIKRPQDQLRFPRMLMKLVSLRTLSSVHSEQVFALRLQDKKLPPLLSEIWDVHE
# Outline: (§1)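 Readout is time-resolved FRET between a terbium anti-GST antibody bound to the LBD and a fluorescein-tagged coactivator peptide recruited on ligand binding. Plates were incubated at room temperature before reading. Potency (IP) and efficacy (Emax) are referenced to T0901317.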
# [2] = molecular target: T2, glutathione-S-transferase (GST) tagged LXRalpha LBD (ligand binding domain) (Homo sapiens, UniProt Q13133); test: LanthaScreen TR-FRET Liver X Receptor Coactivator Assay, co-activator recruitment to LXRalpha LBD; format: biochemical; settings: for Emax / LXR alpha Activity @ max dose (%): efficacy at max dose, in relation to reference dual agonist T0901317; for Emax: read-out: LXR alpha Activity @ max dose (%); for LXR alpha IP (nM) / EC50: potency (Inflection Point, IP), co-activator recruitment to LXRalpha LBD, in relation to T0901317; for EC50: read-out: LXR alpha IP
# T2 construct: purchased Invitrogen pv4655
# T2 sequence (Q13133 209-447 limits assumed): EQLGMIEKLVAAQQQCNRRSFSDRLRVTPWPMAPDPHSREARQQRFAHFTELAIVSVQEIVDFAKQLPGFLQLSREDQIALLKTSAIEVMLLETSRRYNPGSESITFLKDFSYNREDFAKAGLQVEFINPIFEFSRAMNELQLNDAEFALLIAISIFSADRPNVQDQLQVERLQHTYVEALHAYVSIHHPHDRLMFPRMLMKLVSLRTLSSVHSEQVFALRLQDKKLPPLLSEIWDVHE
# Outline: as §1
SMILES,Emax [1] [%],EC50 [1] [nM],Emax [2] [%],LXR alpha IP (nM) [2],EC50 [2] [nM],LXR beta Activity @ max dose (%) [1] [%],LXR alpha Activity @ max dose (%) [2] [%]
"CN(C)C(=O)c1ccc(N2CCC(CC3CCN(C(=O)C(N)(c4ccccc4)C(F)(F)C(F)(F)F)CC3)CC2)cc1Cl (stereo not shown) [Example 2-123, 4-(4-{[1-(2-amino-3,3,4,4,4-pentafluoro-2-phenylbutanoyl)piperidin-4-yl]methyl}piperidin-1-yl)-2-chloro-N,N-dimethyl-benzamide]",106,335,21,,1470,,
"CNC(=O)c1ccc(N2CCC(CC3CCN(C(=O)[C@](O)(c4cc(Cl)cc(Cl)c4)C(F)(F)F)CC3)CC2)nc1Cl [Example 7-134, 2-chloro-6-[4-({1-[(2R)-2-(3,5-dichlorophenyl)-3,3,3-trifluoro-2-hydroxypropanoyl]piperidin-4-yl}methyl)piperidin-1-yl]-N-methylpyridine-3-carboxamide]",78,9,14,NO IP,,,
"CNC(=O)c1ccc(N2CCC(OC3CCN(C(=O)C(O)(c4cccc(OC)c4)C(F)(F)F)CC3)CC2)cc1Cl (stereo not shown) [Example 7-32, 2-chloro-N-methyl-4-[4-({1-[3,3,3-trifluoro-2-hydroxy-2-(3-methoxyphenyl)propanoyl]piperidin-4-yl}oxy)piperidin-1-yl]benzamide]",92,184,18,,4240,,
"CCc1cccc([C@@](O)(C(=O)N2CCC(C)(CC3CCN(c4ccc(C(=O)N(C)C)c(Cl)n4)CC3)CC2)C(F)(F)F)c1 [Example 7-49, 2-chloro-6-[4-({1-[(2R)-2-(3-ethylphenyl)-3,3,3-trifluoro-2-hydroxypropanoyl]-4-methylpiperidin-4-yl}methyl)piperidin-1-yl]-N,N-dimethylpyridine-3-carboxamide]",40,6,8,NO IP,,,
"COc1cccc([C@@](O)(C(=O)N2CCC(CC3CCN(c4ccc(C(=O)N(C)C)c(Cl)c4)CC3)CC2)C(F)(F)F)n1 (stereo in doubt) [Example 2-165, 2-chloro-N,N-dimethyl-4-[4-({1-[3,3,3-trifluoro-2-hydroxy-2-(6-methoxy-pyridin-2-yl)propanoyl]piperidin-4-yl}methyl)piperidin-1-yl]benzamide]",108,2.5,18,NO IP,,,
"COc1cccc([C@@](O)(C(=O)N2CCC(CC3CCN(c4ccc(C(=O)N(C)C)c(Cl)n4)CC3)CC2)C(F)(F)F)c1 [Example 7-74, 2-chloro-N,N-dimethyl-6-[4-({1-[(2R)-3,3,3-trifluoro-2-hydroxy-2-(3-methoxyphenyl)propanoyl]piperidin-4-yl}methyl)piperidin-1-yl] pyridine-3-carboxamide]",,7,,NO IP,,61,9
"Cc1cc(N2CCC(CC3CCN(C(=O)OC(C)(C)C)CC3)CC2)ccc1C(=O)N(C)C [Example 1-2, tert-butyl 4-({1-[4-(dimethylcarbamoyl)-3-methylphenyl]piperidin-4-yl}methyl)piperidine-1-carboxylate]",58,240,13,NO IP,,,
"COc1cccc(C(O)(C(=O)N2CCC(CC3CCN(c4ccc(C(=O)N(C)C)c(Cl)n4)CC3)CC2)C(F)(F)C(F)(F)F)c1 (stereo not shown) [Example 7-58, 2-chloro-N,N-dimethyl-6-[4-({1-[3,3,4,4,4-pentafluoro-2-hydroxy-2-(3-methoxyphenyl)butanoyl]piperidin-4-yl}methyl)piperidin-1-yl]pyridine-3-carboxamide]",80,11,19,,274,,

# Continued by falling EC50 [1], values first:
Emax [1] [%],EC50 [1] [nM],Emax [2] [%],LXR alpha IP (nM) [2],EC50 [2] [nM],LXR beta Activity @ max dose (%) [1] [%],LXR alpha Activity @ max dose (%) [2] [%],SMILES
98,533,14,NO IP,,,,"CN(C)C(=O)c1ccc(N2CCCN(CC3CCN(C(=O)C(O)(c4cccc(Cl)c4)C(F)(F)F)CC3)CC2)cc1Cl (stereo not shown) [Example 6-2, 2-chloro-4-[4-({1-[2-(3-chlorophenyl)-3,3,3-trifluoro-2-hydroxypropanoyl]piperidin-4-yl}methyl)-1,4-diazepan-1-yl]-N,N-dimethylbenzamide]"
55,78,14,NO IP,,,,"CN(C)C(=O)c1ccc(N2CCC(CC3CCN(C(=O)[C@](O)(c4cccc(OC(F)(F)F)c4)C(F)(F)F)CC3)CC2)cc1 [Example 2-144, N,N-dimethyl-4-{4-[(1-{(2R)-3,3,3-trifluoro-2-hydroxy-2-[3-(trifluoro-methoxy)phenyl]propanoyl}piperidin-4-yl)methyl]piperidin-1-yl}benzamide]"
51,51,5,NO IP,,,,"Cc1cccc([C@@](O)(C(=O)N2CCC(CC3CCN(c4ccc(C(=O)N(C)C)cc4)CC3)CC2)C(F)(F)F)c1 [Example 2-129, N,N-dimethyl-4-[4-({1-[(2R)-3,3,3-trifluoro-2-hydroxy-2-(3-methylphenyl)propanoyl]piperidin-4-yl}methyl)piperidin-1-yl]benzamide]"
128,47,47,,922,,,"CN(C)C(=O)c1ccc(N2CCC(CC3CCN(C(=O)[C@@](O)(c4cccc(F)c4)C(F)(F)F)CC3)CC2)nc1Cl [Example 7-73, 2-chloro-N,N-dimethyl-6-[4-({1-[(2S)-3,3,3-trifluoro-2-(3-fluorophenyl)-2-hydroxypropanoyl]piperidin-4-yl}methyl)piperidin-1-yl]pyridine-3-carboxamide]"
,22,,NO IP,,63,16,"CN(C)C(=O)c1ccc(N2CCC(CC3CN(C(=O)[C@](O)(c4cccc(OC(F)(F)F)c4)C(F)(F)F)C3)CC2)cc1Cl [Example 2-68, 2-chloro-N,N-dimethyl-4-{4-[(1-{(2R)-3,3,3-trifluoro-2-hydroxy-2-[3-(trifluoro-methoxy)phenyl]propanoyl}azetidin-3-yl)methyl]piperidin-1-yl}benzamide]"
131,21,51,,900,,,"CN(C)C(=O)c1ccc(N2CCC(OC3CCN(C(=O)[C@](O)(c4ccccc4)C(F)(F)C(F)(F)F)CC3)CC2)cc1Cl [Example 2-22, 2-chloro-N,N-dimethyl-4-[4-({1-[(2R)-3,3,4,4,4-pentafluoro-2-hydroxy-2-phenylbutanoyl]piperidin-4-yl}oxy)piperidin-1-yl]benzamide]"
36,15,4,NO IP,,,,"CCc1cccc([C@@](O)(C(=O)N2CCC(CC3CCN(c4ccc(C(=O)N(C)C)c(Cl)c4)CC3)CC2)C(F)(F)F)c1 [Example 2-113, 2-chloro-4-[4-({1-[(2R)-2-(3-ethyl-phenyl)-3,3,3-trifluoro-2-hydroxy-propanoyl]piperidin-4-yl}methyl)piperidin-1-yl]-N,N-dimethyl-benzamide]"
85,12,27,,425,,,"CN(C)C(=O)c1ccc(N2CCC(CC3CCN(C(=O)[C@](O)(c4ccccc4F)C(F)(F)F)CC3)CC2)nc1Cl [Example 7-80, 2-chloro-N,N-dimethyl-6-[4-({1-[(2R)-3,3,3-trifluoro-2-(2-fluorophenyl)-2-hydroxypropanoyl]piperidin-4-yl}methyl)piperidin-1-yl]pyridine-3-carboxamide]"
